Measurements taken from patent US7915402B2, “Antioxidant inflammation modulators: oleanolic acid derivatives with saturation in the C-ring” (Reata Pharmaceuticals, Inc., priority 2008, dated 2011).
“And” between values parts separate entries of the source, which are not always exact repeats. Equal values may be shown once.

Key:
RAW264.7 macrophages = assay: Cell viability, WST-1 reagent; assay type: cell-based, mouse; conditions: Mus musculus, RAW264.7 (20 ng/ml IFNγ)
Summary of the method: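 Cells pre-treated with DMSO or compound at various nM concentrations for 2 h, then stimulated with 20 ng/ml recombinant mouse IFNγ for 24 h. Nitrite in medium measured by Griess reagent; viability read by WST-1.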

HO-1 = assay: Nrf2 target gene induction, HO-1 mRNA (qPCR); assay type: cell-based, human; conditions: MDA-MB-435 cells, 250 nM; fold induction above DMSO control
Method: FIGS. 17-20. Induction of HO-1. MDA-MB-435 human melanoma cells were treated with vehicle (DMSO) or the indicated compounds and concentrations for 16 hours. HO-1 mRNA levels were quantified using qPCR and were normalized relative to a DMSO-treated sample run in parallel. Values are averages of duplicate wells.
FIG. 21. Induction of HO-1, TrxR1 and γ-GCS. MDA-MB-435 human melanoma cells were treated with vehicle (DMSO) or the indicated compounds and concentrations for 16 hours. HO-1, thioredoxin reductase-1 (TrxR1), and γ-glutamylcysteine synthetase (γ-GCS) mRNA levels were quantified using qPCR and were normalized relative to a DMSO-treated sample run in parallel. Values are averages of duplicate wells.
(§1) Nrf2 target gene induction. MDA-MB-435 human melanoma cells were treated with vehicle (DMSO) or the indicated compounds and concentrations for 16 hours. HO-1, thioredoxin reductase-1 (TrxR1), γ-glutamylcysteine synthetase (γ-GCS), and ferritin heavy chain mRNA levels were quantified using qPCR and were normalized relative to a DMSO-treated sample run in parallel. Values are averages of duplicate wells. Primer sequences are as follows.

Ferritin heavy chain = assay: Induction of ferritin heavy chain mRNA (qPCR); assay type: cell-based, human; conditions: MDA-MB-435 cells, 16 hours
Method: FIG. 24. Induction of Ferritin Heavy Chain. MDA-MB-435 human melanoma cells were treated with vehicle (DMSO) or the indicated compounds and concentrations for 16 hours. Ferritin heavy chain mRNA levels were quantified using qPCR and were normalized relative to a DMSO-treated sample run in parallel. Values are averages of duplicate wells.
as §1

[1] = Plasma pharmacokinetics after oral dosing in monkeys; assay type: in vivo; conditions: cynomolgus monkey; for Mean Maximum 404-02 Plasma Concentration (nM) ± SEM / Mean Maximum 404-02 Plasma Concentration (ng/mL) ± SEM: oral gavage
Method: Doses were prepared in sesame oil and individualized to body weight on the day of dosing. Blood was drawn prior to dosing and at 1, 2, 4, 8 and 24 hours post -dose on days 1 and 12. Blood samples were collected from the femoral artery/vein for determination of 404-02 plasma concentrations. Blood was placed in tubes containing K3EDTA and stored on ice until centrifugation at room temperature. The isolated plasma was transferred to cryovials and stored at −80° C. until sample processing and LC -MS/MS analysis. Extracted plasma standard curves were prepared from fresh stock solutions and analyzed prior to study samples.
Population mean pharmacokinetic parameter estimates were obtained by performing non-compartmental analysis of the 404-02 plasma concentration-versus-time data using WinNonlin™ software version 5.2.
Pharmacokinetic parameters obtained using non-compartmental analysis, WinNonlin™ version 5.2.
Pharmacokinetic parameters were obtained using non-compartmental analysis using WinNonlin™ version 5.2 software.

[2] = CNS and lung tissue concentrations after oral dosing in monkeys; assay type: in vivo; conditions: cynomolgus monkey; for excess of mean CNS concentration compared to the dose necessary to suppress inflammation in vitro: vs NO IC50 about 45 nM; for Mean 404-02 CNS Tissue Content (ng/g) ± SEM: day 15, about 3 h after dosing; for Mean 404-02 CNS Tissue Concentration (nM) ± SEM: conversion assumes tissue density 1 g/mL
Method: CNS and lung concentrations following oral dosing: 2 male and 2 female cynomolgus monkeys were administered 404-02 at 0.5, 5, 25 or 75 mg/kg/day doses via oral gavage, in addition to a control (non-treatment) group with 2 animals per sex. Animals were sacrificed approximately 3 hours after dosing on day 15 following harvest of brain and lung tissues. Each sample collected was rinsed in 1× isotonic phosphate buffered saline and blotted dry before weighing. Harvested tissue slices were transferred to cryovials and stored at −80° C. until processing and LC-MS/MS analysis. Standard curves were derived for 404-02 in homogenates of these tissues and were used to quantify the day 15 samples.

[3] = CNS and lung tissue concentrations after oral dosing in rats; assay type: in vivo; conditions: both sexes, Sprague Dawley, rat, SD rats, oral gavage, day 15, 3 h post-dose
Method: To examine tissue concentrations following oral dosing, 5 male and 5 female Sprague Dawley (SD) rats were administered 404-02 at 1, 10, 50 or 150 mg/kg/day via oral gavage. Doses were prepared in sesame oil and individualized to body weight on the day of dosing. Animals were sacrificed 3 hours post-dose on day 15 of study following harvest of brain and lung specimens. Each sample collected was rinsed in 1× isotonic phosphate buffered saline and blotted dry before weighing. Tissue slices were transferred to cryovials and stored at −80° C. until processing and LC-MS/MS analysis. Standard curves were derived for 404-02 in these tissues.

[4] = oral gavage, 0.5 mg/kg/day, day 15
[5] = oral gavage, 5 mg/kg/day, day 15
[6] = oral gavage, 25 mg/kg/day, day 15
[7] = oral gavage, 75 mg/kg/day, day 15

## CC1(C)CC[C@]2(C(=O)NCC(F)(F)F)CC[C@]3(C)[C@H](C(=O)C[C@@H]4[C@@]5(C)C=C(C#N)C(=O)C(C)(C)[C@@H]5CC[C@]43C)[C@@H]2C1 [Compound 63102, (4aS,6aR,6bR,8aR,12aR,12bR,14aR,14bS)-11-cyano-2,2,6a,6b,9,9,12a-heptamethyl-10,14-dioxo-N-(2,2,2-trifluoroethyl)-1,2,3,4,4a,5,6,6a,6b,7,8,8a,9,10,12a,12b,13,14,14a,14b-icosahydropicene-4a-carboxamide]
RAW264.7 macrophages
  IC50: > 0.2 µM
HO-1
  HO-1 induction: 3 fold
Ferritin heavy chain
  Ferritin heavy chain mRNA induction: concentration needed compared with unsaturated counterpart (402, 404): higher concentrations
[1]; 0.5 mg/kg/d, day 1, n=4
  Mean Maximum 404-02 Plasma Concentration (nM) ± SEM: 3.4 ± 0.61 nM
  Mean Maximum 404-02 Plasma Concentration (ng/mL) ± SEM: 1.95 ± 0.35 ng/mL
[1]; 0.5 mg/kg/d, day 12, n=4
  Mean Maximum 404-02 Plasma Concentration (ng/mL) ± SEM: 2.65 ± 0.6 ng/mL
[1]; 0.5 mg/kg/d, day 12, n=4, listed as 404-02, 0.5 mg/kg/day
  Mean Maximum 404-02 Plasma Concentration (nM) ± SEM: 4.6 nM and 4.6 ± 1.0 nM
[1]; 5 mg/kg/d, day 1, n=4
  Mean Maximum 404-02 Plasma Concentration (nM) ± SEM: 17.6 ± 6.6 nM
  Mean Maximum 404-02 Plasma Concentration (ng/mL) ± SEM: 10.1 ± 3.8 ng/mL
[1]; 5 mg/kg/d, day 12, n=4
  Mean Maximum 404-02 Plasma Concentration (ng/mL) ± SEM: 7.3 ± 1.7 ng/mL
[1]; 5 mg/kg/d, day 12, n=4, listed as 404-02, 5 mg/kg/day
  Mean Maximum 404-02 Plasma Concentration (nM) ± SEM: 12.7 nM and 12.7 ± 2.9 nM
[1]; 25 mg/kg/d, day 1, n=4
  Mean Maximum 404-02 Plasma Concentration (nM) ± SEM: 29.3 ± 2.3 nM
  Mean Maximum 404-02 Plasma Concentration (ng/mL) ± SEM: 16.8 ± 1.3 ng/mL
[1]; 25 mg/kg/d, day 12, n=4
  Mean Maximum 404-02 Plasma Concentration (ng/mL) ± SEM: 10.0 ± 3.7 ng/mL
[1]; 25 mg/kg/d, day 12, n=4, listed as 404-02, 25 mg/kg/day
  Mean Maximum 404-02 Plasma Concentration (nM) ± SEM: 17.5 nM and 17.5 ± 6.4 nM
[1]; 75 mg/kg/d, day 1, n=4
  Mean Maximum 404-02 Plasma Concentration (nM) ± SEM: 33.8 ± 4.7 nM
  Mean Maximum 404-02 Plasma Concentration (ng/mL) ± SEM: 19.4 ± 2.7 ng/mL
[1]; 75 mg/kg/d, day 12, n=4, listed as 404-02, 75 mg/kg/day
  Mean Maximum 404-02 Plasma Concentration (nM) ± SEM: 48.6 nM
[1]; oral, 75 mg/kg dose level
  increase in AUC0-24hr after 12 days of dosing compared to day 1: 1.6 fold
[1]; oral, other dose levels (0.5, 5, 25 mg/kg/day)
  accumulation (AUC day 12 vs day 1): Accumulation was not observed
[2]; both sexes, lung, oral gavage, 25 mg/kg/day, day 15, read-out: Mean 404-02 Lung Tissue Concentration (nM) ± SEM
  concentration at 3 h: 246 ± 87 nM
[2]; 0.5 mg/kg/day
  excess of mean CNS concentration compared to the dose necessary to suppress inflammation in vitro: 48 fold
[2]; 5 mg/kg/day
  excess of mean CNS concentration compared to the dose necessary to suppress inflammation in vitro: 44 fold
[2]; 25 mg/kg/day
  excess of mean CNS concentration compared to the dose necessary to suppress inflammation in vitro: 37 fold
[2]; 75 mg/kg/day
  increase of mean lung tissue exposure compared to the dose necessary to suppress inflammation in vitro: 133 fold
  excess of mean CNS concentration compared to the dose necessary to suppress inflammation in vitro: 75 fold
[2]; [4]
  Mean 404-02 Lung Tissue Concentration (nM) ± SEM: 1227 ± 508 nM
  Mean 404-02 Lung Tissue Content (ng/g) ± SEM: 705 ± 292 ng/g
[2]; oral gavage, 0.5 mg/kg/day
  Mean 404-02 CNS Tissue Content (ng/g) ± SEM: 1198 ± 712 ng/g
[2]; [5]
  Mean 404-02 Lung Tissue Concentration (nM) ± SEM: 55 ± 27 nM
  Mean 404-02 Lung Tissue Content (ng/g) ± SEM: 24 ± 15 ng/g
  Mean 404-02 CNS Tissue Concentration (nM) ± SEM: 1900 ± 982 nM
[2]; oral gavage, 5 mg/kg/day
  Mean 404-02 CNS Tissue Content (ng/g) ± SEM: 1090 ± 564 ng/g
[2]; [6]
  Mean 404-02 Lung Tissue Content (ng/g) ± SEM: 141 ± 50 ng/g
  Mean 404-02 CNS Tissue Concentration (nM) ± SEM: 1618 ± 612 nM
[2]; oral gavage, 25 mg/kg/day
  Mean 404-02 CNS Tissue Content (ng/g) ± SEM: 930 ± 352 ng/g
[2]; [7]
  Mean 404-02 Lung Tissue Concentration (nM) ± SEM: 5929 ± 1435 nM
  Mean 404-02 Lung Tissue Content (ng/g) ± SEM: 3405 ± 824 ng/g
  Mean 404-02 CNS Tissue Concentration (nM) ± SEM: 3305 ± 864 nM
[2]; oral gavage, 75 mg/kg/day
  Mean 404-02 CNS Tissue Content (ng/g) ± SEM: 1898 ± 496 ng/g
[3]; brain (CNS tissue), 1 mg/kg/day, read-out: Mean 404-02 CNS Tissue Concentration (nM) ± SEM
  concentration at 3 h: 51 ± 11.8 nM
[3]; brain (CNS tissue), 1 mg/kg/day, read-out: Mean 404-02 CNS Tissue Content (ng/g = ng/mL) ± SEM
  concentration at 3 h: 29 ± 6.8 ng/g
[3]; brain (CNS tissue), 10 mg/kg/day, read-out: Mean 404-02 CNS Tissue Concentration (nM) ± SEM
  concentration at 3 h: 733 ± 173 nM
[3]; brain (CNS tissue), 10 mg/kg/day, read-out: Mean 404-02 CNS Tissue Content (ng/g = ng/mL) ± SEM
  concentration at 3 h: 421 ± 99 ng/g
[3]; brain (CNS tissue), 50 mg/kg/day, read-out: Mean 404-02 CNS Tissue Concentration (nM) ± SEM
  concentration at 3 h: 1310 ± 188 nM
[3]; brain (CNS tissue), 50 mg/kg/day, read-out: Mean 404-02 CNS Tissue Content (ng/g = ng/mL) ± SEM
  concentration at 3 h: 750 ± 108 ng/g
[3]; brain (CNS tissue), 150 mg/kg/day, read-out: Mean 404-02 CNS Tissue Concentration (nM) ± SEM
  concentration at 3 h: 1110 ± 143 nM
[3]; brain (CNS tissue), 150 mg/kg/day, read-out: Mean 404-02 CNS Tissue Content (ng/g = ng/mL) ± SEM
  concentration at 3 h: 640 ± 82 ng/g
[3]; lung, 1 mg/kg/day, read-out: Mean dh404 Lung Tissue Concentration (nM) ± SEM
  concentration at 3 h: 972 ± 215 nM
[3]; lung, 1 mg/kg/day, read-out: Mean dh404 Lung Tissue Content (ng/g = ng/mL) ± SEM
  concentration at 3 h: 558 ± 123 ng/g
[3]; lung, 10 mg/kg/day, read-out: Mean dh404 Lung Tissue Concentration (nM) ± SEM
  concentration at 3 h: 7020 ± 1620 nM
[3]; lung, 10 mg/kg/day, read-out: Mean dh404 Lung Tissue Content (ng/g = ng/mL) ± SEM
  concentration at 3 h: 4030 ± 928 ng/g
[3]; lung, 50 mg/kg/day, read-out: Mean dh404 Lung Tissue Concentration (nM) ± SEM
  concentration at 3 h: 12500 ± 2130 nM
[3]; lung, 50 mg/kg/day, read-out: Mean dh404 Lung Tissue Content (ng/g = ng/mL) ± SEM
  concentration at 3 h: 7160 ± 1220 ng/g
[3]; lung, 150 mg/kg/day, read-out: Mean dh404 Lung Tissue Concentration (nM) ± SEM
  concentration at 3 h: 16900 ± 2860 nM
[3]; lung, 150 mg/kg/day, read-out: Mean dh404 Lung Tissue Content (ng/g = ng/mL) ± SEM
  concentration at 3 h: 9720 ± 1640 ng/g
